Assay results from US10155721B2, “Lignanamides and a method of treating neurodegenerative diseases by using the same” (Macau University of Science and Technology, priority 2017, dated 2018).

Key:
Assay type in all cases: cell-based
PC12 cells [1] = test: MTT assay, thapsigargin (Tg)-induced cytotoxicity in PC12 cells; settings: pre-treatment 12.5, 25, 50 μM for 12 h, then Tg 48 h; FIG. 12C
Protocol: (§1) In one example embodiment, effects of the Sativamide A and the Sativamide B ER stress-induced neurotoxicity on a neuroblastoma cell model (PC12 cells) are tested. PC-12 cells are purchased from the American Type Culture Collection (ATCC). PC-12 cells are cultured in DMEM medium (Invitrogen) supplemented with 100 U/ml penicillin, 100 μg/mL streptomycin, and 10% horse serum and 5% fetal bovine serum (Gibco, Carlsbad, USA). The cells are incubated at 37° C. in a humidified atmosphere of 5% CO2 and 95% air. PC12 cells are seeded into 96-well culture plates (5.0×10^3 cells/well) and cultured under standard conditions for 12 h. Cells are then treated with the Sativamide A and the Sativamide B at concentrations of 12.5 μM, 25 μM and 50 μM or a vehicle for another 12 h. After treatment, the whole medium is replaced with fresh medium containing tunicamycin (Tm) (0.1 nM or 1.0 μM) or thapsigargin (Tg) (10 nM or 100 nM) and the cells are incubated for additional 48 h. After incubation, supernatant is changed by fresh medium and thiazolyl blue tetrazolium bromide (MTT) is given at a concentration of 0.5 mg/mL. After incubation at 37° C. for 4 h, the absorbance is measured at 570 nm with a micro-plate reader.

SH-SY5Y cells [2] = test: MTT assay, Tm-induced cytotoxicity in SH-SY5Y cells (FIG. 13B); settings: pre-treatment 12.5, 25, 50 μM for 12 h, then inducer 48 h
Protocol: (§2) In one example embodiment, effects of the Sativamide A and the Sativamide B on ER stress-induced neurotoxicity on a neuroblastoma cell models (SH-SY5Y cells) are tested. SH-SY5Y cells are purchased from the American Type Culture Collection (ATCC). SH-SY5Y cells are cultured in 1:1 mixture of DMEM and F12 medium containing 10% fetal bovine serum (Gibco, Carlsbad, USA). SH-SY5Y cells are incubated at 37° C. in a humidified atmosphere of 5% CO2 and 95% air. SH-SY5Y cells are seeded into 96-well culture plates (5.0×10^3 cells/well) and cultured under standard conditions for 12 h. Cells are then treated with the Sativamide A and the Sativamide B at concentrations of 12.5 μM, 25 μM and 50 μM or a vehicle for another 12 h. After treatment, the whole medium is replaced with fresh medium containing Tm (0.1 or 1.0 μM) or Tg (10 or 100 nM) and cells are incubated for additional 48 h. After incubation, supernatant is changed by fresh medium and MTT is given at a concentration of 0.5 mg/mL. After incubation at 37° C. for 4 h, the absorbance is measured at 570 nm with a micro-plate reader.

SH-SY5Y cells [3] = test: MTT assay and microscopy, Tg-induced cytotoxicity in SH-SY5Y cells; settings: for Tg-induced cell death and cell growth (microscopic observations): SH-SY5Y cells pre-treated with 50 μM, FIG. 13A; for ER stress-mediated Tg-induced cytotoxicity in SH-SY5Y cells (MTT assay): pre-treatment 12.5, 25, 50 μM for 12 h, then Tg 48 h, FIG. 13C
Protocol: as §2

SH-SY5Y cells [4] = test: Effect of the compounds on viability of SH-SY5Y cells; settings: final concentration 50 μM, FIGS. 13A to 13C
Protocol: as §2

PC12 cells [5] = test: MTT assay and microscopy, tunicamycin (Tm)-induced cytotoxicity in PC12 cells; settings: for cell death and cell growth induced by Tm (microscopic observations): PC12 cells pre-treated with 50 μM, FIG. 12A; for Tm-induced PC12 cell toxicity (MTT assay): pre-treatment 12.5, 25, 50 μM for 12 h, then Tm 48 h, FIG. 12B
Protocol: as §1

PC12 cells [6] = test: Effect of the compounds on viability of PC12 cells; settings: final concentration 50 μM, FIGS. 12A to 12C
Protocol: as §1

Row | Structure (SMILES) | ER stress-mediated cytotoxicity in PC12 cells induced by Tg (MTT assay) (PC12 cells [1]) | Tg-induced SH-SY5Y cell toxicity (MTT assay, FIG. 13B) (SH-SY5Y cells [2]) | Tg-induced cell death and cell growth (microscopic observations) (SH-SY5Y cells [3]) | ER stress-mediated Tg-induced cytotoxicity in SH-SY5Y cells (MTT assay) (SH-SY5Y cells [3]) | adverse effects on cell viability (SH-SY5Y cells [4]) | cell death and cell growth induced by Tm (microscopic observations) (PC12 cells [5]) | Tm-induced PC12 cell toxicity (MTT assay) (PC12 cells [5]) | adverse effects on cell viability (PC12 cells [6])
1 | CO[C@]12C(=O)C=C[C@]13C=C(C(=O)NCCc1ccc(O)cc1)[C@H](C(=O)NCCc1ccc(O)cc1)[C@@H]3c1cc(O)c(O)cc12 [Sativamide B, 10-methoxyl-sativamide A] | suppress ER stress-mediated cytotoxicity in PC12 cells that is induced by Tg in a dose-dependent manner | mitigate the Tg-induced SH-SY5Y cell toxicity in a dose-dependent manner | markedly reduced | suppress ER stress-mediated Tg-induced cytotoxicity in SH-SY5Y cells tin a dose-dependent manner | no adverse effects on cell viability | markedly reduced | mitigate the Tm-induced PC12 cell toxicity in a dose-dependent manner | no adverse effects on cell viability
2 | O=C(NCCc1ccc(O)cc1)C1=C[C@]23C=CC(=O)[C@@]2(O)c2cc(O)c(O)cc2[C@@H]3[C@H]1C(=O)NCCc1ccc(O)cc1 [Sativamide A] | suppress ER stress-mediated cytotoxicity in PC12 cells that is induced by Tg in a dose-dependent manner | mitigate the Tg-induced SH-SY5Y cell toxicity in a dose-dependent manner | markedly reduced | suppress ER stress-mediated Tg-induced cytotoxicity in SH-SY5Y cells tin a dose-dependent manner | no adverse effects on cell viability | markedly reduced | mitigate the Tm-induced PC12 cell toxicity in a dose-dependent manner | no adverse effects on cell viability
